# Measured values reported in PubChem BioAssay (NCI).
#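 Dose response: 5 concentrations. Exposure: 48 h. Format: 96-well plates. Endpoint: linear interpolation; highest concentration if not reached. Abbreviation: GI50, concentration required for 50% inhibition of growth. TGI denotes the concentration required for complete inhibition of growth.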
# What was measured:
# Experiment in all cases: inhibition of tumour cell growth, NCI panel, 48 h
# KM12 colon = tested on: KM12 colon
# NCI-H522 lung = tested on: NCI-H522 lung
# CAKI-1 renal = tested on: CAKI-1 renal
# MCF7 breast = tested on: MCF7 breast
# SK-OV-3 ovarian = tested on: SK-OV-3 ovarian
# NCI-H226 lung = tested on: NCI-H226 lung
# SNB-19 CNS = tested on: SNB-19 CNS
# IGROV1 ovarian = tested on: IGROV1 ovarian
# 786-0 renal = tested on: 786-0 renal
# NCI-H23 lung = tested on: NCI-H23 lung
Compound,TGI (KM12 colon) [µM],TGI (NCI-H522 lung) [µM],TGI (CAKI-1 renal) [µM],TGI (MCF7 breast) [µM],TGI (SK-OV-3 ovarian) [µM],TGI (NCI-H226 lung) [µM],TGI (SNB-19 CNS) [µM],TGI (IGROV1 ovarian) [µM],TGI (786-0 renal) [µM],TGI (NCI-H23 lung) [µM],GI50 (MCF7 breast) [µM],GI50 (NCI-H23 lung) [µM]
CC1(C)CCc2c(c(N=Nc3ccc(F)cc3)c3ccccc3c2O)O1,> 100,> 100,> 100,> 100,> 100,> 100,> 100,> 100,> 100,> 100,,
CN1CCN(C2=CC(=O)c3c(O)ccc(O)c3C2=O)CC1,3.59,3.17,3.08,1.18,> 10,2.96,3.05,3.06,3.91,2.8,,
Brc1ccc2c(-c3csc(-c4c[nH]c5ccccc45)n3)c[nH]c2c1,34.7,32.2,33.4,37.1,44.8,34,31.7,26.6,33.8,28.2,16.7,14.5
Cc1sc2nc3n(c(=O)c2c1C)N=CN(c1ccc(F)cc1)C3,> 100,> 100,> 100,> 100,> 100,> 100,> 100,> 100,38.3,> 100,,
c1ccc(CN2CCN3CCN(CC2)CCN(Cc2ccccc2)CC3)cc1,14.6,16,> 88.3,18.8,40,19.1,18.7,22.1,18.2,21.8,,
CC1=C(C)C(=O)C(C2=CC(=O)C=CC2=O)=C(C2=CC(=O)C=CC2=O)C1=O,> 100,64.7,> 56.6,> 81.4,> 100,> 100,> 100,> 100,> 100,> 100,,
O=C(O)Cn1cc([N+](=O)[O-])c(=O)c2ccccc21,> 100,> 100,> 100,> 100,> 100,> 100,> 100,> 100,> 100,> 100,,
O=[N+]([O-])C(Cl)=C/C(=C(\Cl)SCc1ccccc1)[N+](=O)[O-],> 100,46.2,34.2,> 100,> 100,75.9,> 100,91,71.2,69.6,,
O=c1[nH]c(=S)c2cc3c(=S)[nH]c(=O)n(CCO)c3nc2n1CCO,> 100,> 100,> 100,> 100,> 100,> 100,> 100,> 100,> 100,> 100,,
N#CC(C#N)=C1C(=O)NC(N)=C1C#N,> 100,> 100,> 100,> 100,> 100,> 100,> 100,> 100,> 100,> 100,,
O=c1ccc2ccc(O)cc2o1,> 100,> 100,> 100,> 100,> 100,> 100,> 100,> 100,> 100,> 100,,
CCCCCCCCCCCCCC(=O)N(CCCCCCCCC)CC(O)C(O)C(OC1OC(CO)C(O)C(O)C1O)C(O)CO (configuration not stated),37.1,44.4,30.6,> 100,30.8,34.3,44,38.1,32,41.5,,
Cc1c(C(=O)O)n2cnnc2c2ccccc12,> 100,> 100,> 100,> 100,> 100,> 100,> 100,> 100,> 100,> 100,,
CN(Cc1cc(Cl)c(Cl)cc1NC(=O)CN)[C@H]1CCCC[C@@H]1N1CCCC1,> 100,40.4,> 100,> 100,> 100,> 100,> 100,> 100,33,> 100,,
COc1ccc(C(=O)/C=C/c2cc(O)c(O)cc2F)c(OC)c1,> 79.9,3.19,> 100,13.9,47.2,55,24.9,> 88.2,22.9,26.6,,
CC(=O)c1c2n(n(-c3ccccc3)c1=O)C(=O)c1nccnc1-2,> 100,> 100,> 100,> 100,> 100,> 100,> 100,> 100,> 100,> 100,,
